Numbers after ± are expanded uncertainties.
Test: xn = mol fraction of the nth substance listed
Conditions: 101 kPa, Liquid

CCCCCCOC(C)=O [hexyl ethanoate] + C1CCOC1
Conditions | mass density [kg/m3] | speed of sound [m/s] | viscosity [mPa·s]
298.15 K, x1 = 0.0514 | 882.2 ± 1.4 | 1260 ± 11 | 0.485 ± 0.016
298.15 K, x1 = 0.1091 | 882.2 ± 1.4 | 1256 ± 11 | 0.526 ± 0.017
298.15 K, x1 = 0.1735 | 882.1 ± 1.4 | 1248 ± 11 | 0.57 ± 0.017
298.15 K, x1 = 0.2467 | 881.7 ± 1.4 | 1240 ± 11 | 0.616 ± 0.018
298.15 K, x1 = 0.3289 | 880.9 ± 1.4 | 1236 ± 11 | 0.669 ± 0.019
298.15 K, x1 = 0.4241 | 879.6 ± 1.4 | 1232 ± 11 | 0.73 ± 0.02
298.15 K, x1 = 0.5384 | 877.8 ± 1.4 | 1232 ± 11 | 0.79 ± 0.021
298.15 K, x1 = 0.6648 | 875.5 ± 1.4 | 1232 ± 11 | 0.875 ± 0.022
298.15 K, x1 = 0.8185 | 872.4 ± 1.4 | 1232 ± 11 | 0.967 ± 0.024
298.15 K, x1 = 1 | 868.3 ± 1.5 | 1236 ± 11 | 1.071 ± 0.026
303.15 K, x1 = 0.0514 | 878.8 ± 1.4 | 1236 ± 11 | 0.471 ± 0.016
303.15 K, x1 = 0.1091 | 878.6 ± 1.4 | 1232 ± 11 | 0.504 ± 0.016
303.15 K, x1 = 0.1735 | 878.3 ± 1.4 | 1224 ± 11 | 0.543 ± 0.017
303.15 K, x1 = 0.2467 | 877.6 ± 1.4 | 1212 ± 11 | 0.584 ± 0.018
303.15 K, x1 = 0.3289 | 876.6 ± 1.4 | 1208 ± 11 | 0.632 ± 0.018
303.15 K, x1 = 0.4241 | 875.2 ± 1.4 | 1204 ± 11 | 0.683 ± 0.019
303.15 K, x1 = 0.5384 | 873.3 ± 1.4 | 1204 ± 11 | 0.745 ± 0.02
303.15 K, x1 = 0.6648 | 870.9 ± 1.4 | 1204 ± 11 | 0.812 ± 0.021
303.15 K, x1 = 0.8185 | 867.7 ± 1.5 | 1204 ± 11 | 0.892 ± 0.023
303.15 K, x1 = 1 | 863.9 ± 1.5 | 1216 ± 11 | 0.982 ± 0.024
308.15 K, x1 = 0.0514 | 872.9 ± 1.4 | 1216 ± 11 | 0.456 ± 0.016
308.15 K, x1 = 0.1091 | 872.7 ± 1.4 | 1208 ± 11 | 0.484 ± 0.016
308.15 K, x1 = 0.1735 | 872.4 ± 1.4 | 1200 ± 11 | 0.518 ± 0.016
308.15 K, x1 = 0.2467 | 871.9 ± 1.4 | 1188 ± 10 | 0.554 ± 0.017
308.15 K, x1 = 0.3289 | 871.2 ± 1.4 | 1184 ± 10 | 0.595 ± 0.018
308.15 K, x1 = 0.4241 | 870 ± 1.4 | 1180 ± 10 | 0.641 ± 0.018
308.15 K, x1 = 0.5384 | 868.2 ± 1.5 | 1180 ± 10 | 0.692 ± 0.019
308.15 K, x1 = 0.6648 | 866 ± 1.5 | 1180 ± 10 | 0.751 ± 0.02
308.15 K, x1 = 0.8185 | 863 ± 1.5 | 1180 ± 10 | 0.819 ± 0.022
308.15 K, x1 = 1 | 859.8 ± 1.5 | 1196 ± 11 | 0.898 ± 0.023
313.15 K, x1 = 0.0514 | 866.7 ± 1.5 | 1200 ± 11 | 0.416 ± 0.015
313.15 K, x1 = 0.1091 | 866.5 ± 1.5 | 1188 ± 10 | 0.444 ± 0.015
313.15 K, x1 = 0.1735 | 866.2 ± 1.5 | 1176 ± 10 | 0.475 ± 0.016
313.15 K, x1 = 0.2467 | 865.8 ± 1.5 | 1168 ± 10 | 0.508 ± 0.016
313.15 K, x1 = 0.3289 | 865.2 ± 1.5 | 1164 ± 10 | 0.547 ± 0.017
313.15 K, x1 = 0.4241 | 864.2 ± 1.5 | 1156 ± 10 | 0.591 ± 0.018
313.15 K, x1 = 0.5384 | 862.6 ± 1.5 | 1152 ± 10 | 0.639 ± 0.018
313.15 K, x1 = 0.6648 | 860.5 ± 1.5 | 1152 ± 10 | 0.695 ± 0.019
313.15 K, x1 = 0.8185 | 857.8 ± 1.5 | 1152 ± 10 | 0.761 ± 0.02
313.15 K, x1 = 1 | 855 ± 1.5 | 1176 ± 10 | 0.836 ± 0.022

Source: the NIST ThermoML archive (doi:10.1021/je400539h)
